Results from patent US9920053B2, “N-(hetero)aryl-substituted heteroyclic derivatives useful for the treatment of diseases or conditions related to the central nervous system” (CHRONOS THERAPEUTICS LIMITED, priority 2014, dated 2018).

Key:
[1] = biological target: human norepinephrine transporter (NET) (Homo sapiens (Human), UniProt P23975); assay: Scintillation Proximity Assay (SPA) for human NET binding ([3H]nisoxetine); conditions: recombinant human NET, CHO membranes
Source text: (§1) Affinity is expressed in terms of inhibition constant (Ki) of the compounds of the invention for DAT, NET and SERT, and it is typically calculated from the IC50 values obtained in competition experiments using Cheng and Prusoff equation (Cheng and Prusoff, Biochem. Pharmacol. 22:3099, 1973). In the context of the present invention pKi values (corresponding to the antilogarithm of Ki) are used instead of Ki; pKi are only estimated to be accurate to about 0.3 log unit.
(§2) Chinese Hamster Ovary (CHO) cells stably expressing either human DAT (hDAT-CHO) or human NET (hNET-CHO) or human SERT (hSERT-CHO) are used for the membrane preparations for radioligand binding assays using Scintillation proximity Assay (SPA) technique. Each cell line is cultured independently in F-12K Nutrient Mixture containing 10% of Fetal Bovine Serum (FBS) supplemented with 450 μg/ml G-418. When cells are at 70-80% of confluence 3 mM Na Butyrate was added to the cell culture medium. After 24 h of incubation, the culture medium was removed and the cells detached with Versene (DAT) or by scraping (NET and SERT). Cell suspension is centrifuged at 41,000 g for 10 minutes at 4° C. The resultant pellets are re-suspended in 15 volumes of Ice-cold buffer (20 mM HEPES, 145 mM NaCl, 5 mM KCl, pH7.3), homogenized using an Ultra Turrax homogeniser and centrifuged as before. The resultant membrane pellets are re-suspended in up to 15 volume of ice-cold buffer, incubated for 20 minutes at 37° C and centrifuged as before at 41,000 g. The final membrane pellets are re-suspended into 5-10 volumes of ice-cold buffer, dispensed into 0.5 ml aliquots and stored at −80° C. until use. Protein concentration for each preparation is determined using Bio-Rad Protein Assay Kit.
(§3) The affinity of the compounds of the invention to the human DAT or NET or SERT transporters is assessed by using the [^3H]WIN-35,428 or [^3H]nisoxetine or [^3H]citalopram binding assays in recombinant human DAT, NET and SERT membranes with the SPA technology. The final assay volume is 50 μL in 384 well plates.
(§4) Briefly, 0.5 μL of test compound in neat DMSO or 0.5 μL of DMSO for total binding (TB) or 0.5 μL of indatraline 1 mM (10 μM final concentration) for non specific binding (NSB) are added to the assay plate. 50 μL of the SPA mixture is added to each well, containing: 30 μg/mL or 10 μg/mL or 25 μg/mL DAT, NET, SERT membranes, respectively; 5 nM [^3H]WIN-35,428 or 5 nM [^3H]nisoxetine or 1 nM [^3H]citalopram, for DAT, NET, SERT assay, respectively; 2.5 mg/mL or 1 mg/mL or 4 mg/mL WGA-PVT SPA beads (PerkinElmer RPNQ0001, for DAT, NET, SERT assay, respectively. All components are added to Assay Buffer (20 mM HEPES pH 7.4, 145 mM NaCl, 5 mM KCl, 0.01% Pluronic F-127). 0.02% BSA was used for DAT binding only. Plates are sealed with Topseal A and centrifuged 1 min, 800 rpm. Plates are loaded into a 1450 Microbeta TriLux (Perkin-Elmer) plate reader and the radioactivity counted after at least 4 hrs or overnight incubation at room temperature. Curve fitting and IC50 estimations are performed using a four parameter model in XLfit (IDBS, Guilford, UK) for Microdoft Excel (Microsoft, Redmond, Wash.).

[2] = biological target: human serotonin transporter (SERT) (Homo sapiens (Human), UniProt P31645); assay: Scintillation Proximity Assay (SPA) for human SERT binding ([3H]citalopram); conditions: recombinant human SERT, CHO membranes
Sequence of human serotonin transporter (SERT) (P31645 whole entry): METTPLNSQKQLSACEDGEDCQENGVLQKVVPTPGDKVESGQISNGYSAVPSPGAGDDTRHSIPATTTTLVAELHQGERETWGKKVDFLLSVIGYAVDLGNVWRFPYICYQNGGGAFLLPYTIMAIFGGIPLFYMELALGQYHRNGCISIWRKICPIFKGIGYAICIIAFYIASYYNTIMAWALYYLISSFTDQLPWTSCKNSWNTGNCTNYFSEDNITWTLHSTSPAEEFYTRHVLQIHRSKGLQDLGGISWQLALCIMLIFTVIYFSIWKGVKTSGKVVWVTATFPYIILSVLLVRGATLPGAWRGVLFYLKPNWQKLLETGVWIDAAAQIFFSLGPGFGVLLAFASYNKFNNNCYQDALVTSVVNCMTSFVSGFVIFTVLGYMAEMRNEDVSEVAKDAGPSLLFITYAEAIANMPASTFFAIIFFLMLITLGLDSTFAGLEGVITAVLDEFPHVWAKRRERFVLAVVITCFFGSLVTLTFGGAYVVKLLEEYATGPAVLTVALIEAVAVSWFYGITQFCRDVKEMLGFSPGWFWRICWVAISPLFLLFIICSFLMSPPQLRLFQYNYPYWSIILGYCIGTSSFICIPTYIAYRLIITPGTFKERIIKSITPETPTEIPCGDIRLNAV
Source text: as §1, §2, §3, §4

[3] = biological target: human ERG potassium channel (hERG) (Homo sapiens (Human), UniProt Q12809); assay: hERG channel tail current recording using Rapid ICE automated patch-clamp; format: cell-based; conditions: HEK293 cells stably transfected with hERG
Sequence of human ERG potassium channel (hERG) (Q12809 whole entry): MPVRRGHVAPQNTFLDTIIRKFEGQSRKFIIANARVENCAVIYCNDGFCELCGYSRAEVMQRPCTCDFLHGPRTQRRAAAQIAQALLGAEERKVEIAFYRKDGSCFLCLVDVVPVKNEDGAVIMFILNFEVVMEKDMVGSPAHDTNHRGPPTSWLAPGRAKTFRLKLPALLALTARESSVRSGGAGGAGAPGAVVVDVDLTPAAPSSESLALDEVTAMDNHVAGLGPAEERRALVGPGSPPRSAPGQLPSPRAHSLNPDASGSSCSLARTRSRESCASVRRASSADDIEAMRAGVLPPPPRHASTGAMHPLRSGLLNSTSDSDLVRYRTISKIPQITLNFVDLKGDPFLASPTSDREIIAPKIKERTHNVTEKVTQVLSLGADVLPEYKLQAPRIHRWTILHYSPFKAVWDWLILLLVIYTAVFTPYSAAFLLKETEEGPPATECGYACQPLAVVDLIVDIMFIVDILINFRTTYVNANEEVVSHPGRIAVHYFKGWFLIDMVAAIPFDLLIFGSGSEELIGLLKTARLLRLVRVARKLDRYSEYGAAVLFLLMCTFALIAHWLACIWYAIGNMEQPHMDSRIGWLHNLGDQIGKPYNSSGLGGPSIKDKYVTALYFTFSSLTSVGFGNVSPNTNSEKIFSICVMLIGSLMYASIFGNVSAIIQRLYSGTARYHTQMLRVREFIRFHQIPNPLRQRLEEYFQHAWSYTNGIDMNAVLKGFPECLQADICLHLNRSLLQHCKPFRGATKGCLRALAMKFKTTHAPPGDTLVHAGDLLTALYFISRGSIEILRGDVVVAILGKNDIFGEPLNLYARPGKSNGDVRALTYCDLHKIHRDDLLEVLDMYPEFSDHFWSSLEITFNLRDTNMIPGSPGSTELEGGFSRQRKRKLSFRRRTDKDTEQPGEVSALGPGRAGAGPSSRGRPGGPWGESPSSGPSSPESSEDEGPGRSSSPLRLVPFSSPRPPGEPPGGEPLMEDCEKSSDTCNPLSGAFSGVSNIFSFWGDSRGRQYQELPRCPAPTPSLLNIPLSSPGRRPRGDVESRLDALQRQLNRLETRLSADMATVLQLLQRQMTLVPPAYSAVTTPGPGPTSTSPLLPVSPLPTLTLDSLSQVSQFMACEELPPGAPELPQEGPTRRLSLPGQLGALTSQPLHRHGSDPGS
Method: The potency of the compounds of the invention in inhibiting human ERG potassium channel (hERG) tail current is assessed in a recombinant HEK293 cell line stably transfected with hERG cDNA using Rapid ICE™ (Rapid Ion Channel Electrophysiology) assay. Rapid ICE™ is an automated patch-clamp assay utilizing the PatchXpress 7000A system (Molecular Devices Corporation) or the QPatch HTX system (Sophion Bioscience A/S).
Briefly cells are cultivated for 24 to 72 hours before recordings in minimum essential medium supplemented with 10% FBS, 1% non-essential amino acids, 1% sodium pyruvate, 2 mM L-glutamine. The day of the experiment cells are detached with TrypLE and prepared to be loaded on the instrument. For PatchXpress cells are finally resuspended in 150 μl of Extracellular Buffer whereas for QPatch cells are resuspended in 7 ml Serum-Free Media containing 25 mM Hepes and Soybean trypsin inhibitor and immediately placed in the cell storage tank of the machine. The composition of the Extracellular Buffer is (mM): NaCl 137; KCl 4; CaCl2 1.8; MgCl2 1.0; D-glucose 10; N 2 hydroxyethylpiperazine-N′-2-ethanesulfonic acid (HEPES) 10; pH 7.4 with 1 M NaOH. The composition of the pipette solution is (mM): KCl 130; MgCl2 1.0; Ethylene glycol-bis(β-aminoethyl ether)-N,N,N′,N′-tetraacetic acid (EGTA) 5; MgATP 5; HEPES 10; pH 7.2 with 1 M KOH. The voltage protocol includes the following steps: step from −80 mV to −50 mV for 200 ms, +20 mV for 4.8 s, step to −50 mV for 5 s then step to the holding potential of −80 mV. Compounds of the invention are dissolved in DMSO and diluted in Extracellular Buffer to achieve final test concentrations (0.1, 1 and 10 μM) in 0.1% DMSO. The voltage protocol is run and recorded continuously during the experiment. The vehicle, corresponding to 0.1% DMSO in Extracellular Buffer, is then applied for 3 min followed by the test substance in triplicate. The standard combined exposure time is 5 min. The average of tail current amplitude values recorded from 4 sequential voltage pulses is used to calculate for each cell the effect of the test substance by calculating the residual current (% control) compared with vehicle pre-treatment. Data are reported as % inhibition for each concentration tested and IC50 values are estimated using DataXpress or QPatch software. At least two cells are tested, more if results diverge.

[4] = biological target: human dopamine transporter (DAT) (Homo sapiens (Human), UniProt Q01959); assay: Scintillation Proximity Assay (SPA) for human DAT binding ([3H]WIN-35,428); conditions: recombinant human DAT, CHO
Sequence of human dopamine transporter (DAT) (Q01959 whole entry): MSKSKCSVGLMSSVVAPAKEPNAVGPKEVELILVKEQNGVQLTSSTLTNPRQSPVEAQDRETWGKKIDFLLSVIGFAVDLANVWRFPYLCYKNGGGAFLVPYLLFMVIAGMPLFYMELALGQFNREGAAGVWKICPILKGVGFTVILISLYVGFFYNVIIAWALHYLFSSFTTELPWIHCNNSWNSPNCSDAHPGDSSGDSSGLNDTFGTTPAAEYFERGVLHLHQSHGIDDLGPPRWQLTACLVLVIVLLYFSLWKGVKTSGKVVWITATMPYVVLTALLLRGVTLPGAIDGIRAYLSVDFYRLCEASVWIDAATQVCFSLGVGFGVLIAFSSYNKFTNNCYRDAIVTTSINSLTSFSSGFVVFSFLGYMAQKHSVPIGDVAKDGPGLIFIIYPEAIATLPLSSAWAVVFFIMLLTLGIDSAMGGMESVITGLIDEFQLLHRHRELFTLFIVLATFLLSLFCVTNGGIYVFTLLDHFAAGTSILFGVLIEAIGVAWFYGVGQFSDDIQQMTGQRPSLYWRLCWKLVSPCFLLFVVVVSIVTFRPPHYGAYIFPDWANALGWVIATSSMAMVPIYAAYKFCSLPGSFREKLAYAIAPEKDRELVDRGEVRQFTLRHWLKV
Source text: as §1, §2, §3, §4
The potency of the compounds of the invention in blocking the DAT function is measured using an uptake assay in a recombinant CHO cell line expressing human DAT (hDAT-CHO). Potency is measured in terms of pIC50 by testing the compounds of invention for the inhibition of [^3H]-dopamine uptake in DAT-CHO cells using a SPA technology in 384 well format.
Briefly, on the days of the experiment hDAT-CHO cells are detached using Versene and added (75,000 cells/mL) to the SPA Mixture, which contains the following components in Assay Buffer (20 mM HEPES, 145 mM NaCl, 5 mM KCl, 2 mM CaCl2, 1 mM MgCl2 and 1 g/L glucose, pH 7.3): 0.02% w/v of Pluronic F127, 2 mg/mL SPA Imaging beads (RPNQ0260, PerkinElmer), 10 μM pargyline and 80 nM of [^3H]-dopamine. […]

Sequence of human norepinephrine transporter (NET) (P23975 whole entry): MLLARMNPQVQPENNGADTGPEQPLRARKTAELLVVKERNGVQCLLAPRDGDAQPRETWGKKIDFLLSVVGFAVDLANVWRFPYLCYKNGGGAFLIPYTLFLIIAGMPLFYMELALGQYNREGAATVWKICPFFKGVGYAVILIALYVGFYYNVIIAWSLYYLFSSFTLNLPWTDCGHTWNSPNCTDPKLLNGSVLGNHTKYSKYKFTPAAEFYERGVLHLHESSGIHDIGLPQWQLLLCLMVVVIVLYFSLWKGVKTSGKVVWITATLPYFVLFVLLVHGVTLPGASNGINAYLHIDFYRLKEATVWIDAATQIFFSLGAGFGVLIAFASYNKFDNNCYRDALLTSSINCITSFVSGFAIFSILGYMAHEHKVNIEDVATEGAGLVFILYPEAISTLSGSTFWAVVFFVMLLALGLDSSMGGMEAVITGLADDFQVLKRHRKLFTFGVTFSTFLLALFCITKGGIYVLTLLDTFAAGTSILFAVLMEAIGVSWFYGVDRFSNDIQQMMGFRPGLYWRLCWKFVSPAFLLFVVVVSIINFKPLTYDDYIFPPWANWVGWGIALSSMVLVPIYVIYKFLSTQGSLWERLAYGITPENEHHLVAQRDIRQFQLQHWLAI

Compound | pIC50 NET [1] | IC50 [2] | IC50 [3] | pIC50 DAT [4] | pIC50 hERG [3] | pIC50 SERT [2]
CC(C)C(=O)NCC1(O)CCN(c2nc(Oc3cccc(F)c3)cc(C(F)(F)F)n2)CC1 [Example 21, N-({1-[4-(3-fluorophenoxy)-6-(trifluoromethyl)pyrimidin-2-yl]-4-hydroxypiperidin-4-yl}methyl)-2-methylpropanamide] | 4.75 | > 100 µM | > 10 µM | 7.84 | – | –
OC1(CNC2CC2)CCN(c2nc(Oc3cccc(F)c3)cc(C(F)(F)F)n2)CC1 [Example 3, 4-[(cyclopropylamino)methyl]-1-[4-(3-fluorophenoxy)-6-(trifluoromethyl)pyrimidin-2-yl]piperidin-4-ol] | 6.42 | 21.4 µM | – | 8.13 | 6.0 | –
OC1(CN2CCCC2)CCN(c2nc(Oc3cccc(F)c3)cc(C(F)(F)F)n2)CC1 [Example 2, 1-[4-(3-fluorophenoxy)-6-(trifluoromethyl)pyrimidin-2-yl]-4-(pyrrolidin-1-ylmethyl)piperidin-4-ol] | 7.57 | 17 µM | – | 8.80 | 6.7 | –
Fc1cccc(Oc2cc(C(F)(F)F)nc(N3CCc4nc[nH]c4C3)n2)c1 [Example 36, 4-(3-fluorophenoxy)-2-{3H,4H,5H,6H,7H-imidazo[4,5-c]pyridin-5-yl}-6-(trifluoromethyl)pyrimidine] | 6.01 | > 100 µM | – | 7.90 | 5.6 | –
NCC1(O)CCN(c2cc(Oc3cccc(F)c3)cc(F)c2F)CC1 [Example 18, 4-(aminomethyl)-1-[2,3-difluoro-5-(3-fluorophenoxy)phenyl]piperidin-4-ol] | 7.51 | 6.17 µM | – | 9.05 | 6.0 | –
(3S or 3R)-3-[(cyclopropylamino)methyl]-1-[4-(3-fluorophenoxy)-6-(trifluoromethyl)pyrimidin-2-yl]pyrrolidin-3-ol [Example 31] | 6.86 | – | – | 8.75 | 5.7 | 4.46
CN(C)CC1(O)CCN(c2nc(Oc3cccc(F)c3)cc(C(F)(F)F)n2)CC1 [Example 1, 4-[(dimethylamino)methyl]-1-[4-(3-fluorophenoxy)-6(trifluoromethyl)pyrimidin-2-yl]piperidin-4-ol] | 7.00 | 13.5 µM | – | 8.46 | 6.6 | –
